Assay results taken from patent publication US12421249B2, “Inhibitors of APOL1 and methods of using same” (Vertex Pharmaceuticals Incorporated, priority 2020, dated 2025).

Biological target: T1, APOL1 G1 (Homo sapiens, UniProt O14791, I384M/S342G)
T1 sequence (O14791 28-398 S342G/I384M): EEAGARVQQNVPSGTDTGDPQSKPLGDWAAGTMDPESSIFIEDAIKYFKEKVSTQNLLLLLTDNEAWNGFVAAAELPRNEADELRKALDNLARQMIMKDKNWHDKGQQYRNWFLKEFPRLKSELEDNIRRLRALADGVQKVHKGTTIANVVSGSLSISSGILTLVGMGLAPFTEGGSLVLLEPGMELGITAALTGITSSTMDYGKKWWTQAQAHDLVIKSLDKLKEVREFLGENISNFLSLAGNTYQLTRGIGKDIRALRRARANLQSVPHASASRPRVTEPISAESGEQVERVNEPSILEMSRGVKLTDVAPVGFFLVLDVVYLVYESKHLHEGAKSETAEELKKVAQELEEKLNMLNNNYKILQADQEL
Assay: MultiTox-Fluor Multiplex Cytotoxicity Assay in tet-inducible APOL1 G1 T-REx-HEK293 cells (clone G1 DC3.25)
Assay type: cell-based
Parameters: expressed in transfected cells; host or cells: T-REx HEK293, pAAVS1-Puro-APOL1 G1, clone G1 DC3.25
Conditions: Multi-Tox Assay, APOL1 variant cell line not given; for Emax: read-out: Multi-Tox Assay Max Activity (%); for IC50: IP50 = IC50 for cell proliferation
Experimental: The MultiTox-Fluor Multiplex Cytotoxicity Assay is a single-reagent-addition, homogeneous, fluorescence assay that measures the number of live and dead cells simultaneously in culture wells. The assay measures cell viability and cytotoxicity by detecting two distinct protease activities. The live-cell protease activity is restricted to intact viable cells and is measured using a fluorogenic, cell-permeant peptide glycyl-phenylalanylamino fluorocoumarin (GF-AFC) substrate. The substrate enters intact cells, where it is cleaved to generate a fluorescent signal proportional to the number of living cells. […] A second, cell-impermeant, fluorogenic peptide substrate (bis-AAF-R110 Substrate) is used to measure dead-cell protease that has been released from cells that have lost membrane integrity. A ratio of dead to live cells is used to normalize data.
Briefly, the tet-inducible transgenic APOL1 T-REx-HEK293 cell lines were incubated with 50 ng/mL tet to induce APOL1 in the presence of 3-(2-(4-fluorophenyl)-1H-indol-3-yl)-N-((3S,4R)-4-hydroxy-2-oxopyrrolidin-3-yl)propenamide at […], 0.0045, 0.0015, 0.0005 μM in duplicate for 24 hours in a humidified 37° C. incubator. The MultiTox reagent was added to each well and placed back in the incubator for an additional 30 minutes. The plate was read on the EnVision plate reader. A ratio of dead to live cells was used to normalize, and data was imported, analyzed and fit using Genedata Screener (Basel, Switzerland) software. Data was normalized using percent of control, no tet (100% viability), and 50 ng/mL tet treated (0% viability), and fit using Smart Fit. The reagents, methods, and complete protocol for the MultiTox assay are described below.
Human embryonic kidney (HEK293) cell lines containing a tet-inducible expression system (T-REx™; Invitrogen, Carlsbad, CA) and Adeno-associated virus site 1 pAAVS1-Puro-APOL1 G0 or pAAVS1-Puro-APOL1 G1 or pAAVS1-Puro-APOL1 G2 Clones G0 DC2.13, G1 DC3.25, and G2 DC4.44 were grown in a T-225 flask at ˜90% confluency in cell growth media (DMEM, 10% Tet-free FBS, 2 mM L-glutamine, 100 Units/mL penicillin-streptomycin, 5 μg/mL blasticidin S HCl, 1 μg/mL puromycin dihydrochloride). Cells were washed with DPBS and then trypsinized to dissociate from the flask. Media was used to quench the trypsin, cells were then pelleted at 200 g and resuspended in fresh cell assay media (DMEM, 2% Tet-free FBS, 2 mM L-glutamine, 100 Units/mL penicillin-streptomycin). Cells were counted and diluted to 1.17×10^6 cells/mL. 20 μL of cells (23,400/well) were dispensed to every well of a 384-well Poly-D-Lysine coated plate using the Multidrop dispenser. The plates were then incubated at room temperature for one hour.
Tetracycline is needed to induce APOL1 expression. 1 mg/mL tet stock in water was diluted to 250 ng/mL (5×) in cell assay media. 60 μL of cell assay media (no tet control) was dispensed in columns 1 and 24, and 60 μL of 5× tet was dispensed in 384-PP-round bottom plate in columns 2 to 23 with the Multidrop dispenser.
Assay ready plates from the Global Compound Archive were ordered using template 384_APOL1Cell_DR10n2_50 μM_v3. Compounds were dispensed at 200 nL in DMSO. The final top concentration was 10 μM with a 10 point 3-fold dilution in duplicate in the MultiTox assay.
20 μL were transferred from the 5× tet plate to the ARP and mixed, then 5 μL of 5× tet and the compounds were transferred to the cell plate and mixed using the Bravo. The cell plate was placed in the humidified 37° C. 5% CO2 incubator for 24 hours.
The MultiTox-Fluor Multiplex Cytotoxicity Assay was performed in accordance with the manufacturer's protocol. After cells were incubated with tet and compound for 24 hours, 25 μL of 1× MultiTox reagent was added to each well using the Multidrop dispenser; the plates were placed on a plate shaker (600 rpm) for 2 minutes, then centrifuged briefly and placed back in the 37° C. incubator for 30 minutes. […]

SMILES | IC90 [nM] | Emax [%] | IC50 [nM]
C[C@H]1C[C@@]2(C[C@@H](C3(C#N)CC3)N1)OCCc1cc(Cl)sc12 (racemic) [Compound 377] | > 500 | 98 | 50 to 500
COCC1([C@@H]2C[C@]3(C[C@H](C)N2)OCCc2cc(Cl)sc23)CC1 (racemic) [Compound 376] | 50 to 500 | 99 | 50 to 500
Cn1cc([C@@H]2C[C@]3(C[C@H](C4CC4)N2)OCCc2cc(C(F)(F)F)sc23)nn1 [Compound 383, (2′R,6′S,7S)-2′-cyclopropyl-6′-(1-methyltriazol-4-yl)-2-(trifluoromethyl)spiro[4,5-dihydrothieno[2,3-c]pyran-7,4′-piperidine]] | – | – | < 50
Cn1cc(C2CC3(CC(C(F)F)N2)OCCc2cc(Cl)sc23)nn1 (centres unmarked) [Compound 388, 2-chloro-2′-(difluoromethyl)-6′-(1-methyltriazol-4-yl)spiro[4,5-dihydrothieno[2,3-c]pyran-7,4′-piperidine]] | – | – | > 500
C[C@H]1C[C@@]2(C[C@@H](C3(CO)CC3)N1)OCCc1cc(Cl)sc12 [Compound 380, [1-[(2′S,6′S, 7S)-2-chloro-6′-methyl-spiro[4,5-dihydrothieno[2,3-c]pyran-7,4′-piperidine]-2′-yl]cyclopropyl]methanol] | – | 99 | < 50
C[C@H]1C[C@@]2(C[C@@H](c3cn(CCC(C)(C)O)nn3)N1)OCC(F)(F)c1cc(Cl)sc12 [Compound 367] | – | 99 | < 50
COc1ccc(Cn2cc([C@@H]3C[C@]4(C[C@H](C)N3)OCC(F)(F)c3cc(Cl)sc34)nn2)cc1F [Compound 362] | – | 98 | –
C[C@H]1C[C@@]2(C[C@@H](c3cn(C)nn3)N1)OC[C@@H](O)c1cc(C(F)(F)F)sc12 [Compound 386, (2S,4S,4′S,6S)-2-methyl-6-(1-(methyl-^13C-d3)-1H-1,2,3-triazol-4-yl)-2′-(trifluoromethyl)-4′,5′-dihydrospiro[piperidine-4,7′-thieno[2,3-c]pyran]-5-^13C-4′-ol] | < 50 | – | < 50
C[C@H]1C[C@@]2(C[C@@H](c3cn(CCO)nn3)N1)OCC(F)(F)c1cc(Cl)sc12 [Compound 361] | – | 98 | < 50
CCOC(=O)C1CC1[C@@H]1C[C@]2(C[C@H](C)N1)OCCc1cc(Cl)sc12 (stereo in doubt) [Compound 375] | 50 to 500 | – | < 50
C[C@H](CO)Cn1cc([C@@H]2C[C@]3(C[C@H](C)N2)OCC(F)(F)c2cc(Cl)sc23)nn1 [Compound 371] | 50 to 500 | 99 | < 50
C[C@H]1C[C@@]2(C[C@@H](C3(N)CC3)N1)OCCc1cc(Cl)sc12 [Compound 373, 1-[(2′S,6′S,7S)-2-chloro-6′-methyl-spiro[4,5-dihydrothieno[2,3-c]pyran-7,4′-piperidine]-2′-yl]cyclopropanamine] | – | 99 | < 50
CC(=O)NC1([C@@H]2C[C@]3(C[C@H](C)N2)OCCc2cc(Cl)sc23)CC1 [Compound 379, N-[1-[(2′S,6′S, 7S)-2-chloro-6′-methyl-spiro[4,5-dihydrothieno[2,3-c]pyran-7,4′-piperidine]-2′-yl]cyclopropyl]acetamide] | – | 94 | > 500
Cn1cc([C@@H]2C[C@]3(C[C@H](c4ccccc4)N2)OC[C@@H](O)c2cc(Cl)sc23)nn1 [Compound 387, (2′S,4S,6′R, 7S)-2-chloro-2′-(1-methyltriazol-4-yl)-6′-phenyl-spiro[4,5-dihydrothieno[2,3-c]pyran-7,4′-piperidine]-4-ol] | – | – | > 500
C[C@H]1C[C@@]2(C[C@@H](c3cn(Cc4ccc5nc(O)[nH]c5c4)nn3)N1)OCC(F)(F)c1cc(Cl)sc12 [Compound 366] | – | 95 | –
Cn1cc([C@@H]2C[C@]3(C[C@H](C4CC4)N2)OCCc2cc(Cl)sc23)nn1 [Compound 381, (2′R,6′S, 7S)-2-chloro-2′-cyclopropyl-6′-(1-methyltriazol-4-yl)spiro[4,5-dihydrothieno[2,3-c]pyran-7,4′-piperidine]] | – | – | < 50
C[C@H]1C[C@@]2(C[C@@H](C3(N(C)C)CC3)N1)OCCc1cc(Cl)sc12 (racemic) [Compound 378] | 50 to 500 | 99 | < 50
CC(CO)Cn1cc([C@@H]2C[C@]3(C[C@H](C)N2)OCC(F)(F)c2cc(Cl)sc23)nn1 (some centres unmarked) [Compound 370] | – | 99 | –
C[C@H]1C[C@@]2(C[C@@H](c3cn(C)nn3)N1)OCC(C)(O)c1cc(C(F)(F)F)sc12 (stereo partly drawn) [Compound 384, (2′S,6′S, 7S)-2′,4-dimethyl-6′-(1-methyltriazol-4-yl)-2-(trifluoromethyl)spiro[5H-thieno[2,3-c]pyran-7,4′-piperidine]-4-ol] | – | – | < 50
C[C@H]1C[C@@]2(C[C@@H](c3cn(CC#N)nn3)N1)OCC(F)(F)c1cc(Cl)sc12 [Compound 369] | – | 98 | –
